Results published in patent publication US4740505A, “Pyridazinyloxy (or thio) phenyl phosphates” (priority 1985, dated 1988).
Like-named read-outs stand apart in the source and are kept apart here.

Columns and labels:
[1] = test system: Tetranychus urticae; assay: Effectiveness on Tetranychus urticae (rating of effects on kidney bean seedlings); format: in vivo; conditions: 500 ppm, 20 ml, rating based on percent decrease; for Rating of effect Day-2: 2nd day after treatment; for Rating of effect Day-7: 7th day after treatment
Experimental: Effectiveness on Tetranychus urticae
Each of the compounds listed in the following table is processed into an emulsifiable concentrate in accordance with the formulation of Example 6. The emulsifiable concentrate is diluted with water (Dyne®, a spreading agent produced by Takeda Chemical Ind. Ltd., as diluted 3,000-fold) to prepare a 500 ppm aqueous solution. Ten female adult of Tetranychus urticae are put into each kidney been seedling raised in a jiffy pot (6 cm in diameter), and left in a glass house at 28° C. for 24 hours. Each pot is taken out of the glass house; 20 ml of the aqueous solution as prepared above is spread over each kidney bean seedling. The jiffy pots are laid in the glass house again. Larvae and adult which are alive on the leaves are counted at the 2nd and 7th days after the spreading treatment. The test is repeated two times. The degrees are determined on the basis of percent decrease.

[2] = test system: Spodoptera litura; assay: Effectiveness on Spodoptera litura (mortality of 3rd instar larvae on sprayed soybean leaves); format: in vivo
Experimental: Effectiveness of Spondoptera litura
Each of the test compounds listed in the following table is processed into an emulsifiable concentrate in accordance with the formulation of Example 6. The emulsifiable concentrate is diluted with water (Dyne®, a spreading agent produced by Takeda Chemical Ind. Ltd., as diluted 3,000-fold) to prepare a 100 ppm aqueous solution.
Using a spray gun (nozzle pressure of 1 kg/cm^2 gauge), 20 ml of the aqueous 100 ppm solution is sprayed over soybean seedlings in a spraying chamber (on 10th day after germination) which have been raised in jiffy pots (6 cm in diameter). Two main leaves are respectively cut off from the seedlings 2 hours and 6 days after the spraying. Each of the leaves is put into an ice cream cup (diameter: 6 cm, depth: 4 cm), and 10 larvae of Spodoptera litura at the 3rd instar are put into each of the cups. The cups are left in a room at 25° C.; after 48 hours, dead larvae are counted. The test is repeated two times. The results are shown in terms of mortality (%) in Table 6. [formula]
The following compounds are used for controls.
The same compounds are used for controls also in the following Test Examples.

[3] = Toxicological test: oral acute toxicity in mice; set-up: species or system mice (ddY-SLC strained male); conditions: mouse, in vivo, five-week aged ddY-SLC male mice
[4] = 100 ppm spray, leaves cut 2 hours after spraying, dead larvae counted after 48 hours, 25° C., read-out: Mortality 2 hours after spraying
[5] = 100 ppm spray, leaves cut 6 days after spraying, dead larvae counted after 48 hours, 25° C., read-out: Mortality 6th day after spraying
[6] = 48 h, read-out: Mortality 2 hours after spraying

| SMILES | Rating of effect Day-2 [1] | Rating of effect Day-7 [1] | mortality at 100 ppm [2, 4] | mortality at 100 ppm [2, 5] | LD50 [3] | mortality at 100 ppm [2, 6] | mortality at 100 ppm ([2]; 48 h, read-out: Mortality 6th day after spraying) |
| --- | --- | --- | --- | --- | --- | --- | --- |
| COP(=S)(OC)Oc1ccc([N+](=O)[O-])c(C)c1 [Fenitrothion, reference compound] | 3 (≥90) | 0 (≤20) | 80% | 0% | – | – | – |
| CCCSP(=S)(OCC)Oc1ccc(Oc2ccc(Cl)nn2)c(C)c1 (centres unmarked) [compound 16] | 3 (≥90) | 3 (≥90) | – | 100% | > 300 mg/kg | 100% | – |
| CCCSP(=S)(OCC)Oc1ccc(Sc2ccc(Cl)nn2)cc1 (centres unmarked) [compound 5] | 3 (≥90) | 3 (≥90) | – | – | > 300 mg/kg | – | – |
| CCCSP(=O)(OCC)Oc1ccccc1Oc1ccc(OC)nn1 (centres unmarked) [Compound No. 39, O-Ethyl-S-n-propyl-O-[2-(3-methoxypyridazinyl-6-oxy)phenyl]phosphorothioate] | 3 (≥90) | 3 (≥90) | – | 100% | ~300 mg/kg | 100% | – |
| CCCSP(=O)(OCC)Oc1ccc(Oc2ccc(Cl)nn2)cc1 (centres unmarked) [Compound No. 2, O-Ethyl-S-n-propyl-O-[4-(3-chloropyridazinyl-6-oxy)phenyl]phosphorothioate] | 3 (≥90) | 3 (≥90) | – | 100% | – | 100% | – |
| CCCSP(=O)(OCC)Oc1ccc(Oc2ccc(N(C(C)=O)C(C)CC)nn2)cc1 (centres unmarked) [compound 13] | 3 (≥90) | 3 (≥90) | – | – | – | – | – |
| CCOP(=O)(Oc1ccccc1Oc1ccc(Cl)nn1)SC(C)CC (centres unmarked) [compound 36] | – | – | – | 100% | – | 100% | – |
| CCCSP(=S)(OCC)Oc1cccc(Sc2ccc(Cl)nn2)c1 (centres unmarked) [compound 20] | 3 (≥90) | 3 (≥90) | – | 90% | > 300 mg/kg | 100% | – |
| CCOP(=O)(Oc1ccccc1Oc1ccc(Cl)nn1)SC(C)C (centres unmarked) [compound 33] | – | – | – | – | > 300 mg/kg | – | – |
| CCCSP(=S)(OCC)Oc1ccccc1Oc1ccc(Cl)nn1 (centres unmarked) [Compound No. 30, O-Ethyl-S-n-propyl-O-[2-(3-chloropyridazinyl-6-oxy)phenyl]phosphorodithioate] | 3 (≥90) | 3 (≥90) | – | 100% | > 300 mg/kg | 100% | – |
| CCCSP(=O)(OCC)Oc1cccc(Sc2ccc(Cl)nn2)c1 (centres unmarked) [compound 19] | 3 (≥90) | 3 (≥90) | – | 90% | > 300 mg/kg | 100% | – |
| CCCSP(=O)(OCC)Oc1ccccc1Oc1ccc(C)nn1 (centres unmarked) [compound 37] | 3 (≥90) | 3 (≥90) | – | – | – | – | – |
| CCCSP(=O)(OCC)Oc1ccc(Oc2cccnn2)cc1 (centres unmarked) [compound 1] | 3 (≥90) | 3 (≥90) | – | 90% | – | 100% | – |
| CCC(C)SP(=O)(OC)Oc1ccccc1Oc1ccc(Cl)nn1 (centres unmarked) [Compound No. 27, O-Methyl-S-sec-butyl-O-[2-(3-chloropyridazinyl-6-oxy)phenyl]phosphorothioate] | 3 (≥90) | 3 (≥90) | – | 100% | – | 100% | – |
| CCCSP(=O)(OCC)Oc1ccc(Oc2ccc(N(C)C)nn2)cc1 (centres unmarked) [compound 6] | – | – | – | 90% | – | 100% | – |
| CCCSP(=O)(OCC)Oc1ccc(Sc2ccc(NC(C)CC)nn2)cc1 (centres unmarked) [compound 11] | – | – | – | – | > 300 mg/kg | – | – |
| CCCSP(=S)(OCC)Oc1ccc(Sc2ccc(N(C)C)nn2)cc1 (centres unmarked) [compound 9] | 3 (≥90) | 3 (≥90) | – | – | > 300 mg/kg | – | – |
| CCCSP(=S)(OCC)Oc1ccc(Cl)cc1Cl (centres unmarked) [Prothiophos, reference compound] | 3 (≥90) | 0 (≤20) | 100% | 10% | – | – | – |

| SMILES | Rating of effect Day-2 [1] | Rating of effect Day-7 [1] | mortality at 100 ppm [2, 4] | mortality at 100 ppm [2, 5] | LD50 [3] | mortality at 100 ppm [2, 6] | mortality at 100 ppm ([2]; 48 h, read-out: Mortality 6th day after spraying) |
| --- | --- | --- | --- | --- | --- | --- | --- |
| CCC(C)SP(=O)(OC)Oc1ccccc1Sc1ccc(Cl)nn1 (centres unmarked) [compound 28] | 3 (≥90) | 3 (≥90) | – | 95% | – | 100% | – |
| CCCSP(=O)(OCC)Oc1ccccc1Sc1ccc(N(C)C)nn1 (centres unmarked) [compound 45] | 3 (≥90) | 3 (≥90) | – | – | – | – | – |
| CCCSP(=O)(OCC)Oc1ccccc1Sc1ccc(Cl)nn1 (centres unmarked) [compound 31] | 3 (≥90) | 3 (≥90) | – | – | > 300 mg/kg | – | – |
| CCCSP(=S)(OCC)Oc1ccc(Oc2ccc(NC(C)CC)nn2)cc1 (centres unmarked) [compound 10] | – | – | – | – | > 300 mg/kg | – | – |
| CCCSP(=O)(OCC)Oc1cccc(Oc2ccc(NC(C)CC)nn2)c1 (centres unmarked) [compound 22] | – | – | – | 100% | – | 100% | – |
| CCCSP(=O)(OCC)Oc1ccc(Oc2ccc(Cl)nn2)c(C)c1 (centres unmarked) [compound 15] | 3 (≥90) | 3 (≥90) | – | 100% | – | 100% | – |
| CCCSP(=S)(OCC)Oc1ccc(Oc2ccc(N(C)C)nn2)cc1 (centres unmarked) [compound 7] | – | – | – | – | > 300 mg/kg | – | – |
| CCCSP(=S)(OCC)Oc1ccccc1Oc1ccc(N)nn1 (centres unmarked) [compound 44] | 3 (≥90) | 3 (≥90) | – | – | > 300 mg/kg | – | – |
| CCCSP(=O)(OCC)Oc1cccc(Oc2ccc(N(C)C)nn2)c1 (centres unmarked) [Compound No. 21, O-Ethyl-S-n-propyl-O-[3-(3-dimethylaminopyridazinyl-6-oxy)phenyl]phosphorothioate] | 3 (≥90) | 3 (≥90) | – | 100% | – | 100% | – |
| CCC(C)SP(=O)(OC)Oc1ccc(Oc2ccc(Cl)nn2)c(C)c1 (centres unmarked) [compound 14] | 3 (≥90) | 3 (≥90) | – | – | – | – | – |
| CCCSP(=O)(OCC)Oc1ccccc1Oc1ccc(Cl)nn1 (centres unmarked) [Compound No. 29, O-Ethyl-S-n-propyl-O-[2-(3-chloropyridazinyl-6-oxy)phenyl]phosphorothioate] | 3 (≥90) | 3 (≥90) | – | – | – | 100% | 90% |
| CCCSP(=O)(OCC)Oc1cccc(Oc2cccnn2)c1 (centres unmarked) [compound 17] | 3 (≥90) | 3 (≥90) | – | 100% | – | 100% | – |
| CCCSP(=S)(OCC)Oc1ccc(Sc2ccc(NC(C)CC)nn2)cc1 (centres unmarked) [compound 12] | – | – | – | – | > 300 mg/kg | – | – |
| CCCSP(=S)(OCC)Oc1ccccc1Sc1ccc(Cl)nn1 (centres unmarked) [Compound No. 32, O-Ethyl-S-n-propyl-O-[2-(3-chloropyridazinyl-6-thio)phenyl]phosphorodithioate] | 3 (≥90) | 3 (≥90) | – | – | > 300 mg/kg | – | – |
| CCCSP(=O)(OCC)Oc1ccccc1Oc1ccc(N)nn1 (centres unmarked) [compound 43] | 3 (≥90) | 3 (≥90) | – | – | – | – | – |
| CCCSP(=S)(OCC)Oc1ccccc1Sc1ccc(NC(C)CC)nn1 (centres unmarked) [compound 46] | 3 (≥90) | 3 (≥90) | – | – | > 300 mg/kg | – | – |
| CCCSP(=O)(OCC)Oc1ccc(Sc2ccc(N(C)C)nn2)cc1 (centres unmarked) [compound 8] | 3 (≥90) | 3 (≥90) | – | – | ~300 mg/kg | – | – |
